In publication PMC3718762, “Differential Disruption of EWS-FLI1 Binding by DNA-Binding Agents” (PLoS ONE, 2013):
Starred links: 1 amine or outer side, 2 acyl side, 3 side chain; linkers in the order of their positions; H or OH if unused. Positions of bridges follow the written chain, without caps; N, C: chain ends. Non-standard residues stand in square brackets, D forms with d. Residues, ends and D or L forms follow the SMILES beside them. Chains are numbered I, II in the order given. Actinocin(9to1) = Cc1c2oc3c(C)ccc(C(=O)[*:1])c3nc-2c(C(=O)[*:2])c(N)c1=O; NMeV = CN[C@H](C(=O)O)C(C)C; Sar = CNCC(=O)O

Assays:
[1] = test system: NR0B1 mRNA; assay: Quantitative RT-PCR of endogenous NR0B1 mRNA in A673 cells; assay type: cell-based
Experimental: Duplicate wells of A673 cells were treated overnight with different concentration of actinomycin D. RNA was extracted with absolutely mRNA purification kit from Stratagene. 0.5 µg total RNA was mixed with 1 µl iScript Reverse Transcriptase, 10 µl of 2× RT-PCR reaction mix for probes from Bio-Rad, 1 µl of NR0B1, RPS26 and TP53 probes from Life Technologies and H2O up to 20 µl total volume. RT-PCR was performed in an iCycler iQ with 50°C for 10 minutes for one cycle; 95°C, 15 seconds, 60°C 40 seconds for 40 cycles. Each RNA sample was technically duplicated, and relative abundance was calculated by the delta Ct method.

[2] = test system: NR0B1 promoter; assay: NR0B1-Luc firefly luciferase reporter assay in A673 cells; assay type: cell-based, human; settings: Homo sapiens, A673, 16 h, read-out: IC50 for inhibition of NR0B1 activity
Text: The NR0B1 promoter was amplified from human genomic DNA using the 5′ primer- […] and 3′ primer - […]. NR0B1 promoter amplicon was cloned into the NheI and HindIII sites in the pGL.3Basic vector. The 5′ primer-[…] was used to amplify a truncated NR0B1 promoter in which the entire EWS-FLI1 binding region (GGAA repeats) was deleted to construct pGL.3b-NR0B1del. All constructs were confirmed by sequencing. All other plasmids were previously described.
(§1) Ewing sarcoma A673 cells at 50% confluence in 100 mm dishes were transfected with both 5.8 µg of pGL.3b-NR0B1 and 0.2 µg of pGL.3b-Ubc-RL reporter plasmids as above. Eight hours post-transfection, cells were trypsinized and 600 ul (2×10^5) of cells were added to each well of 24 well plates. 5 µl of different concentration of compounds or DMSO control were added to each well. Each treatment was performed in triplicate. Cells were incubated for 16 hours, then cells were lysed in 100 µl of lysis buffer and 10 µl of cell lysate was used for the dual luciferase assay. Renilla luciferase activity was used as an internal control for normalization of nonspecific transcriptional inhibition or cytotoxic effects. Experiments were repeated three times. IC50 values were calculated using Prism (Graphpad).
(§2) To determine the effect of compounds on EWS-FLI1 activity in cells, we used a reporter assay comprised of the NR0B1 promoter, a prototypical EWS-FLI1-regulated gene, driving expression of firefly luciferase. Renilla luciferase driven by the Ubiquitin C promoter (UbC-RL) was used as an internal control. Confirming prior studies, the NR0B1 promoter was verified to be highly responsive to EWS-FLI1, whereas the UbC promoter activity was not subject to regulation by EWS-FLI1 (Figure S1).

[3] = biological target: T1, p53 (Homo sapiens, UniProt P04637); assay: AlphaScreen proximity assay (counterscreen), binding of recombinant p53 to cognate DNA oligo
T1 construct: made in house; host or cells: bacteria (pGex-6P-1-p53); plasmid was a gift from Dr. Guangchao Sui
Text: An AlphaScreen assay for binding of recombinant EWS-FLI1 to DNA was previously described. Briefly, recombinant EWS-FLI1 and p53 were synthesized in bacteria transformed with pGex-6P-1-EWS-FLI1 or pGex-6P-1-p53, and bound to AlphaScreen acceptor beads. A biotinylated oligonucleotide containing two copies of the EWS-FLI1 binding motif or p53 binding motifs was bound to AlphaScreen donor beads. For EWS-FLI1, the oligo sequence was: […]. The p53 binding oligo sequence was: […]. This assay was used to screen 5,200 compounds, as previously described. IC50 values were calculated with the GraphPad Prism software package.
We developed a homogeneous AlphaScreen assay to assess the binding of recombinant EWS-FLI1 to DNA [18]. A parallel assay assessing binding of p53 to DNA was used as a counterscreen. Briefly, in these proximity assays, recombinant GST-EWS-FLI1 or GST-p53 was bound to glutathione-conjugated AlphaScreen acceptor beads, and a synthetic biotinylated oligonucleotide (oligo) containing tandem EWS-FLI1 or p53 binding sites was bound to streptavidin-conjugated AlphaScreen donor beads. Binding of GST-EWS-FLI1 or GST-p53 to the cognate oligo allows singlet oxygen transfer from donor to acceptor beads when excited at 680 nm, with resulting light emission between 520–620 nm.

[4] = test system: UbC promoter; assay: UbC-Renilla luciferase reporter (internal control) in A673 cells; assay type: cell-based; settings: Homo sapiens, 16 hours, read-out: IC50 for inhibition of UbC promoter activity
Experimental: as §1, §2

T1 sequence (P04637 whole entry, species assumed): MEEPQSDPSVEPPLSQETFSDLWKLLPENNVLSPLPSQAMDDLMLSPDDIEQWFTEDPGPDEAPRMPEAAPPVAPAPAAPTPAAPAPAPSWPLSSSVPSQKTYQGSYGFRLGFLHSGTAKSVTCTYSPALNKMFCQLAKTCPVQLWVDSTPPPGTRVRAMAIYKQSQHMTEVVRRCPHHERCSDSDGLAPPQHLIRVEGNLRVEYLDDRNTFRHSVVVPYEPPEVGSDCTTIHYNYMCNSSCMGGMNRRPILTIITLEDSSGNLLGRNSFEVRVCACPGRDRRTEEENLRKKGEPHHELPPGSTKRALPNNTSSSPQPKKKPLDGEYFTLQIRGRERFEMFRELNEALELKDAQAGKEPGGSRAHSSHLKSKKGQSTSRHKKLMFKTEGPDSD

## Cc1c2oc3c(C)ccc(C(=O)N[C@@H]4C(=O)N[C@H](C(C)C)C(=O)N5CCC[C@H]5C(=O)N(C)CC(=O)N(C)[C@@H](C(C)C)C(=O)O[C@@H]4C)c3nc-2c(C(=O)N[C@@H]2C(=O)N[C@H](C(C)C)C(=O)N3CCC[C@H]3C(=O)N(C)CC(=O)N(C)[C@@H](C(C)C)C(=O)O[C@@H]2C)c(N)c1=O [Actinomycin D] (I: T[dV]P[Sar][NMeV] / II: T[dV]P[Sar][NMeV]; ester I:1-I:C, II:1-II:C; linker I:N-II:N via Actinocin(9to1))
[1]; A673 cells, overnight, 50 nM
  Expression of NR0B1 and control transcripts: similarly attenuated
[1]; A673 cells, overnight, 5 -10 nM, versus control transcripts p53 and RPS26
  Expression of endogenous NR0B1 mRNA: preferentially attenuated
[1]; in cells
  Window between preferential effect on EWS-FLI1 and global inhibition of transcription: < 10 fold
[2]
  IC50: 2.8 nM
[3]
  IC50: > 10000 nM
[4]
  IC50: 14 nM
